Reference: ChEMBL document CHEMBL5325486, “Synthesis of novobiocin derivatives and evaluation of their antigonococcal activity and pharmacokinetics” (Bioorg Med Chem, 2023)
≈ marks a conversion by molar mass, not a printed value.

Legend:
Neisseria gonorrhoeae = assay: Antibacterial activity against resistant Neisseria gonorrhoeae assessed inhibition of bacterial growth; type: functional
Staphylococcus aureus = assay: Antibacterial activity against Staphylococcus aureus assessed inhibition of bacterial growth; type: functional

SMILES	MIC50 (Neisseria gonorrhoeae)	MIC90 (Neisseria gonorrhoeae)	MIC50 (Staphylococcus aureus)	MIC90 (Staphylococcus aureus)
CO[C@@H]1[C@@H](OC(=O)c2ccc(C)[nH]2)[C@@H](O)[C@H](Oc2ccc3c(O)c(NC(=O)c4ccccc4)c(=O)oc3c2C)OC1(C)C	1 µg/mL (≈ 1.69 µM)	1 µg/mL (≈ 1.69 µM)	0.063 µg/mL (≈ 0.106 µM)	0.125 µg/mL (≈ 0.211 µM)
CO[C@@H]1[C@@H](OC(=O)c2ccc(C)[nH]2)[C@@H](O)[C@H](Oc2ccc3c(O)c(NC(=O)c4c(C)ncn4CC=C(C)C)c(=O)oc3c2C)OC1(C)C	0.5 µg/mL (≈ 0.752 µM)	0.5 µg/mL (≈ 0.752 µM)	0.5 µg/mL (≈ 0.752 µM)	0.5 µg/mL (≈ 0.752 µM)
CO[C@@H]1[C@@H](OC(=O)NOC(C)(C)C)[C@@H](O)[C@H](Oc2ccc3c(O)c(NC(=O)c4ccc(O)c(CC=C(C)C)c4)c(=O)oc3c2C)OC1(C)C	16 µg/mL (≈ 23.4 µM)	64 µg/mL (≈ 93.5 µM)	1 µg/mL (≈ 1.46 µM)	1 µg/mL (≈ 1.46 µM)
CO[C@@H]1[C@@H](OC(=O)c2ccc(C)[nH]2)[C@@H](O)[C@H](Oc2ccc3c(O)c(NC(=O)c4cccc(N5CCN(C)CC5)c4)c(=O)oc3c2C)OC1(C)C	1 µg/mL (≈ 1.45 µM)	1 µg/mL (≈ 1.45 µM)	0.5 µg/mL (≈ 0.724 µM)	0.5 µg/mL (≈ 0.724 µM)
C=CCONC(=O)O[C@H]1[C@@H](O)[C@H](Oc2ccc3c(O)c(NC(=O)c4ccc(O)c(CC=C(C)C)c4)c(=O)oc3c2C)OC(C)(C)[C@@H]1OC	1 µg/mL (≈ 1.5 µM)	2 µg/mL (≈ 2.99 µM)	0.125 µg/mL (≈ 0.187 µM)	0.25 µg/mL (≈ 0.374 µM)
CO[C@@H]1[C@@H](OC(=O)c2ccc(C)[nH]2)[C@@H](O)[C@H](Oc2ccc3c(O)c(NC(=O)c4ccnc(N)c4)c(=O)oc3c2C)OC1(C)C	0.5 µg/mL (≈ 0.822 µM)	1 µg/mL (≈ 1.64 µM)	2 µg/mL (≈ 3.29 µM)	2 µg/mL (≈ 3.29 µM)
CO[C@@H]1[C@@H](OC(=O)c2ccc(C)[nH]2)[C@@H](O)[C@H](Oc2ccc3c(O)c(NC(=O)c4ccnc(N(C)C)c4)c(=O)oc3c2C)OC1(C)C	0.5 µg/mL (≈ 0.785 µM)	0.5 µg/mL (≈ 0.785 µM)	0.5 µg/mL (≈ 0.785 µM)	0.5 µg/mL (≈ 0.785 µM)
CO[C@@H]1[C@@H](OC(=O)c2cc(Cl)c(C)[nH]2)[C@@H](O)[C@H](Oc2ccc3c(O)c(NC(=O)c4ccc(O)c(CC=C(C)C)c4)c(=O)oc3c2C)OC1(C)C	0.5 µg/mL (≈ 0.703 µM)	1 µg/mL (≈ 1.41 µM)	0.063 µg/mL (≈ 0.0886 µM)	0.125 µg/mL (≈ 0.176 µM)
CO[C@@H]1[C@@H](OC(=O)c2ccc(C)[nH]2)[C@@H](O)[C@H](Oc2ccc3c(O)c(NC(=O)c4cscn4)c(=O)oc3c2C)OC1(C)C	0.5 µg/mL (≈ 0.834 µM)	0.5 µg/mL (≈ 0.834 µM)	0.5 µg/mL (≈ 0.834 µM)	0.5 µg/mL (≈ 0.834 µM)
CO[C@@H]1[C@@H](OC(=O)c2ccc[nH]2)[C@@H](O)[C@H](Oc2ccc3c(O)c(NC(=O)c4ccc(O)c(CC=C(C)C)c4)c(=O)oc3c2C)OC1(C)C	0.5 µg/mL (≈ 0.754 µM)	1 µg/mL (≈ 1.51 µM)	0.125 µg/mL (≈ 0.189 µM)	0.25 µg/mL (≈ 0.377 µM)
CO[C@@H]1[C@@H](OC(=O)c2ccc(C)[nH]2)[C@@H](O)[C@H](Oc2ccc3c(O)c(NC(=O)c4cn(C)c(CCC(C)C)n4)c(=O)oc3c2C)OC1(C)C	0.5 µg/mL (≈ 0.75 µM)	1 µg/mL (≈ 1.5 µM)	0.25 µg/mL (≈ 0.375 µM)	0.25 µg/mL (≈ 0.375 µM)
CO[C@@H]1[C@@H](OC(=O)c2ccc(C)[nH]2)[C@@H](O)[C@H](Oc2ccc3c(O)c(NC(=O)c4c[nH]cn4)c(=O)oc3c2C)OC1(C)C	1 µg/mL (≈ 1.72 µM)	1 µg/mL (≈ 1.72 µM)	1 µg/mL (≈ 1.72 µM)	1 µg/mL (≈ 1.72 µM)
CO[C@@H]1[C@@H](OC(=O)c2ccc(C)[nH]2)[C@@H](O)[C@H](Oc2ccc3c(O)c(NC(=O)c4cn(CC5CC5)cn4)c(=O)oc3c2C)OC1(C)C	0.5 µg/mL (≈ 0.785 µM)	1 µg/mL (≈ 1.57 µM)	0.5 µg/mL (≈ 0.785 µM)	0.5 µg/mL (≈ 0.785 µM)
CO[C@@H]1[C@@H](OC(=O)c2ccc(C)[nH]2)[C@@H](O)[C@H](Oc2ccc3c(O)c(NC(=O)c4sc5nccn5c4C)c(=O)oc3c2C)OC1(C)C	0.5 µg/mL (≈ 0.766 µM)	0.5 µg/mL (≈ 0.766 µM)	0.5 µg/mL (≈ 0.766 µM)	1 µg/mL (≈ 1.53 µM)
CO[C@@H]1[C@@H](NC(=O)c2ccc(C)[nH]2)[C@@H](O)[C@H](Oc2ccc3c(O)c(NC(=O)c4ccc(O)c(CC=C(C)C)c4)c(=O)oc3c2C)OC1(C)C	32 µg/mL (≈ 47.4 µM)	64 µg/mL (≈ 94.7 µM)	2 µg/mL (≈ 2.96 µM)	2 µg/mL (≈ 2.96 µM)
C=Cc1cc(C(=O)Nc2c(O)c3ccc(O[C@@H]4OC(C)(C)[C@H](OC)[C@@H](OC(=O)c5ccc(C)[nH]5)[C@H]4O)c(C)c3oc2=O)ccn1	0.5 µg/mL (≈ 0.807 µM)	0.5 µg/mL (≈ 0.807 µM)	0.5 µg/mL (≈ 0.807 µM)	1 µg/mL (≈ 1.61 µM)
CCCn1cnc(C(=O)Nc2c(O)c3ccc(O[C@@H]4OC(C)(C)[C@H](OC)[C@@H](OC(=O)c5ccc(C)[nH]5)[C@H]4O)c(C)c3oc2=O)c1	1 µg/mL (≈ 1.6 µM)	1 µg/mL (≈ 1.6 µM)	0.5 µg/mL (≈ 0.8 µM)	0.5 µg/mL (≈ 0.8 µM)
CO[C@@H]1[C@H](NC(=O)c2ccc(C)[nH]2)[C@@H](O)[C@H](Oc2ccc3c(O)c(NC(=O)c4ccc(O)c(CC=C(C)C)c4)c(=O)oc3c2C)OC1(C)C	64 µg/mL (≈ 94.7 µM)	> 64 µg/mL	> 128 µg/mL	> 128 µg/mL
CO[C@@H]1[C@@H](OC(=O)c2ccc(C)[nH]2)[C@@H](O)[C@H](Oc2ccc3c(O)c(NC(=O)c4csc(C)n4)c(=O)oc3c2C)OC1(C)C	0.25 µg/mL (≈ 0.407 µM)	0.5 µg/mL (≈ 0.815 µM)	0.25 µg/mL (≈ 0.407 µM)	0.25 µg/mL (≈ 0.407 µM)
CO[C@@H]1[C@@H](OC(=O)NOCC(C)C)[C@@H](O)[C@H](Oc2ccc3c(O)c(NC(=O)c4ccc(O)c(CC=C(C)C)c4)c(=O)oc3c2C)OC1(C)C	4 µg/mL (≈ 5.84 µM)	16 µg/mL (≈ 23.4 µM)	0.5 µg/mL (≈ 0.73 µM)	1 µg/mL (≈ 1.46 µM)
CO[C@@H]1[C@@H](OC(=O)c2[nH]c(C)cc2C)[C@@H](O)[C@H](Oc2ccc3c(O)c(NC(=O)c4ccc(O)c(CC=C(C)C)c4)c(=O)oc3c2C)OC1(C)C	0.25 µg/mL (≈ 0.362 µM)	0.25 µg/mL (≈ 0.362 µM)	0.063 µg/mL (≈ 0.0912 µM)	0.125 µg/mL (≈ 0.181 µM)
CO[C@@H]1[C@@H](OC(=O)c2ccc(C)[nH]2)[C@@H](O)[C@H](Oc2ccc3c(O)c(NC(=O)c4cn(Cc5ccccn5)cn4)c(=O)oc3c2C)OC1(C)C	0.5 µg/mL (≈ 0.742 µM)	0.5 µg/mL (≈ 0.742 µM)	0.25 µg/mL (≈ 0.371 µM)	0.5 µg/mL (≈ 0.742 µM)
CO[C@@H]1[C@@H](OC(=O)c2ccc(C)[nH]2)[C@@H](O)[C@H](Oc2ccc3c(O)c(NC(=O)c4ccnc(Oc5cccnc5)c4)c(=O)oc3c2C)OC1(C)C	0.5 µg/mL (≈ 0.728 µM)	1 µg/mL (≈ 1.46 µM)	0.5 µg/mL (≈ 0.728 µM)	1 µg/mL (≈ 1.46 µM)
CO[C@@H]1[C@@H](OC(=O)c2ccc(C)[nH]2)[C@@H](O)[C@H](Oc2ccc3c(O)c(NC(=O)c4cn(Cc5cccc(C(F)(F)F)c5)cn4)c(=O)oc3c2C)OC1(C)C	0.25 µg/mL (≈ 0.338 µM)	0.5 µg/mL (≈ 0.675 µM)	0.125 µg/mL (≈ 0.169 µM)	0.25 µg/mL (≈ 0.338 µM)
CCc1cc(C(=O)Nc2c(O)c3ccc(O[C@@H]4OC(C)(C)[C@H](OC)[C@@H](OC(=O)c5ccc(C)[nH]5)[C@H]4O)c(C)c3oc2=O)ccn1	0.5 µg/mL (≈ 0.804 µM)	1 µg/mL (≈ 1.61 µM)	0.5 µg/mL (≈ 0.804 µM)	1 µg/mL (≈ 1.61 µM)
CO[C@@H]1[C@@H](OC(=O)c2ccc(C)[nH]2)[C@@H](O)[C@H](Oc2ccc3c(O)c(NC(=O)c4ccncc4)c(=O)oc3c2C)OC1(C)C	1 µg/mL (≈ 1.68 µM)	1 µg/mL (≈ 1.68 µM)	4 µg/mL (≈ 6.74 µM)	8 µg/mL (≈ 13.5 µM)
CO[C@@H]1[C@@H](OC(=O)c2ccc(C)[nH]2)[C@@H](O)[C@H](Oc2ccc3c(O)c(NC(=O)c4cncn4C)c(=O)oc3c2C)OC1(C)C	0.5 µg/mL (≈ 0.838 µM)	1 µg/mL (≈ 1.68 µM)	0.5 µg/mL (≈ 0.838 µM)	0.5 µg/mL (≈ 0.838 µM)
C#CCCNC(=O)O[C@H]1[C@@H](O)[C@H](Oc2ccc3c(O)c(NC(=O)c4ccc(O)c(CC=C(C)C)c4)c(=O)oc3c2C)OC(C)(C)[C@@H]1OC	16 µg/mL (≈ 24.1 µM)	32 µg/mL (≈ 48.1 µM)	0.5 µg/mL (≈ 0.752 µM)	0.5 µg/mL (≈ 0.752 µM)
